Assay results published in the NIST ThermoML archive (doi:10.1016/j.jct.2015.05.024).

Tests used:
[1] = 100 kPa, Liquid; for mass density: Vibrating tube method; for speed of sound: Frequency=5 MHz, Pulse-echo method
[2] = xn = mol fraction of the nth substance listed; settings: 100 kPa, Liquid, x2 = 0; for mass density: Vibrating tube method; for speed of sound: Frequency=5 MHz, Pulse-echo method

O [water]
[1]
Settings	mass density [kg/m3]	speed of sound [m/s]
278.15 K	999.965	–
283.15 K	999.698	–
313.15 K	–	1528.8
318.15 K	–	1536.7
323.15 K	988.027	–
328.15 K	985.682	–
333.15 K	983.186	–

OCCOCCOCCO [triethylene glycol]
[1]
Settings	mass density [kg/m3]	speed of sound [m/s]
278.15 K	1135.14	–
283.15 K	1131.29	–
288.15 K	1127.43	1643.9
293.15 K	1123.56	1629
298.15 K	1119.69	1613.5
303.15 K	1115.81	1599.1
308.15 K	1111.92	1584.6
313.15 K	1108.03	1569.1
318.15 K	1104.13	1554.7
323.15 K	1100.22	–
328.15 K	1096.3	–
333.15 K	1092.38	–

O [water] + OCCOCCOCCO
[2]
Settings	mass density [kg/m3]	speed of sound [m/s]
278.15 K	999.965	–
283.15 K	999.698	–
313.15 K	–	1528.8
318.15 K	–	1536.7
323.15 K	988.027	–
328.15 K	985.682	–
333.15 K	983.186	–
